Reference: patent publication US20230190852A1, “COMPOSITIONS AND METHODS FOR JOINT HEALTH” (Unigen, Inc., priority 2013, published 2023)
Values joined by “and” are separate entries in the source; they are usually repeats but may differ in a detail not shown here. Identical values can stand only once. Marks after values point to notes of the source that are not given here.

System: Lewis rats
Assay: Carrageenan-induced rat paw edema model (paw edema and pain sensitivity)
Format: in vivo
Details: for Pain sensitivity (Analgesia), percent change vs. vehicle, 1 hr / Paw Edema (Inflammation), percent change vs. vehicle, 1 hr: 1 hr after treatment; for Pain sensitivity (Analgesia), percent change vs. vehicle, 5 hr / Paw Edema (Inflammation), percent change vs. vehicle, 5 hr: 5 hr after treatment; for Pain sensitivity, percent change of vehicle / Paw edema, percent change of vehicle: 200 mg/kg oral 1 hr after carrageenan, female Lewis rats, 200 mg/kg
Method: Local inflammation was induced by intraplantar injection of carrageenan λ (Sigma, St. Louis, Mo.; 100 μl of 1% [w/v] in saline) into the plantar surface of right hind paw of sedated rat (with 2.5% isoflurane) at time 0 (T=0) (Gamache et al., J Neurosurg. 65:679, 1986; Guay et al., J. Biol. Chem. 279:24866, 2004; Chou et al., Anesth. Analg. 97:1724, 2003). Rats were acclimated in a procedure room for 20-30 minutes before each measurement was taken. Allodynia was evaluated by measuring responsiveness to the tip of a Randell-Selitto paw pressure test applied perpendicular to the central plantar surface of the right hind paw. A positive response to the applied pressure, noted by sharp withdrawal of the paw, was recorded automatically by an electronic Von Frey Anesthesiometer (2390 series Electrovonfrey, IITC, Woodland Hills, Calif.) (Vivancos et al., Braz. J. Med. Biol. Res. 37:391, 2004). Mechanical allodynia was evaluated before carrageenan inoculation, and thereafter at 1 hr, 2 hr, 4 hr and 6 hr. Paw edema volume was measured with the use of Plethysmometer (IITC, Woodland Hills, Calif.; Model 520) at time 0 (before carrageenan), and then 1 hr, 2 hr, 4 hr, and 6 hr after carrageenan injection. Animals (N=5 per group) were orally gavaged with a positive control ibuprofen (Spectrum Chemical MFG, Gardena, Calif.) (100 or 200 mg/kg); test articles such as: extracts, and combinations of extracts at various doses from 100, 200, 300 to 400 mg/kg and vehicle control (propylene glycol) were given 1 hour after carrageenan inoculation unless specified otherwise.

[1] = 200 mg/kg oral, listed as ibuprofen
[2] = 200 mg/kg oral, 3 hr after treatment

Compound: CC(C)Cc1ccc(C(C)C(=O)O)cc1 (centres unmarked) [Ibuprofen]
- Pain sensitivity (Analgesia), percent change vs. vehicle, 1 hr (200 mg/kg oral): 55.6* % and 55.1* % and 52.9* %
- Paw Edema (Inflammation), percent change vs. vehicle, 1 hr (200 mg/kg oral): 43.5* % and 39.5* % and 44.6* %
- Pain sensitivity (Analgesia), percent change vs. vehicle, 1 hr [1]: 55.1%
- Paw Edema (Inflammation), percent change vs. vehicle, 1 hr [1]: 39.5%
- Pain sensitivity (Analgesia), percent change vs. vehicle, 3 hr [2]: 62.7* % and 70.3* % and 62.5* %
- Paw Edema (Inflammation), percent change vs. vehicle, 3 hr [2]: 58.0* % and 50.4* % and 54.9* %
- Paw Edema (Inflammation), percent change vs. vehicle, 3 hr (200 mg/kg oral, 3 hr after treatment, listed as ibuprofen): 50.4%
- Pain sensitivity (Analgesia), percent change vs. vehicle, 5 hr (200 mg/kg oral): 44.6* % and 50.8* % and 48.8* %
- Paw Edema (Inflammation), percent change vs. vehicle, 5 hr (200 mg/kg oral): 50.3* % and 46.6* % and 50.0* %
- Pain sensitivity (Analgesia), percent change vs. vehicle, 5 hr [1]: 50.8%
- Paw Edema (Inflammation), percent change vs. vehicle, 5 hr [1]: 46.6%
- Pain sensitivity, percent change of vehicle (1 hr): 57.1* % and 55.4* % and 56.4* % and 56.1* % and 53.7* % and 52.4* % and 58.6* %
- Paw edema, percent change of vehicle (1 hr): 53.2* % and 51.6* % and 53.9* % and 57.2* % and 54.2* % and 53.0* % and 52.5* %
- Pain sensitivity, percent change of vehicle (3 hr): 61.5* % and 65.9* % and 62.2* % and 59.7* % and 64.0* %
- Paw edema, percent change of vehicle (3 hr): 64.3* % and 61.9* % and 59.0* % and 67.6* % and 57.7* % and 60.1* % and 62.9* %
- Pain sensitivity, percent change of vehicle (5 hr): 44.3* % and 49.3* % and 45.0* % and 47.9* % and 47.5* % and 43.3* % and 50.7* %
- Paw edema, percent change of vehicle (5 hr): 50.6* % and 50.0* % and 52.6* % and 53.5* % and 48.6* % and 51.3* % and 51.6* %
